Assay results reported in patent publication US10772909B2, “System and method for insulin-mimetic of cartilage, bone, or osteochondral repair and piezoelectric composite scaffold” (New Jersey Institute of Technology, priority 2016, dated 2020).
Where two headings read alike, the source gives them in different places.

What was measured:
[1] = system: PBMCs; assay: CellTiter-Blue viability assay; format: cell-based, human; conditions: 0.01, 0.1 and 1 mM Na2WO4; 4 days exposure
Method: CellTiter-Blue Assay (Promega, Madison, Wis.) was used to assess the viability of PBMCs. Cell Titre Blue was used to measure the metabolic activity of PBMCs as a surrogate for cell number. Each experimental group was performed in triplicate in 96-well tissue culture plates. After 4 days, CellTiter-Blue reagent (20 μL/well) was added to each well. The plates were incubated and after 4 hours, the fluorescence intensity was measured with microplate reader (Synergy, HTX, BioTek, Winooski, Vt., USA) at 560/590 nm emission. Percent viability was calculated as the fluorescence reading of treated (stimulated) cells divided by untreated healthy cells, which were considered 100% viable as described in Greco et al..

[2] = system: Human MSCs; assay: Chondrogenesis culture: sGAG production (Blyscan); format: cell-based
Method: (§1) Chondrogenesis Culture. Cryopreserved MSCs were thawed and expanded in GM until 70-80% confluent. Cells were trypsininzed and then seeded on 6 mm diameter scaffold disks at 1.76×10^5 cells/cm^2 and cultured for 28 days in GM, chondrogenic induction medium (CCM), or CCM without insulin, according to previously published methods. CCM consisted of DMEM high glucose containing 4 mM L-glutamine (Invitrogen, Grand Island, N.Y., USA), 0.1 μM dexamethasone (Sigma-Aldrich), 0.17 mM ascorbic acid-2-phosphate (Wako Chemicals, Richmond, Va., USA), 1% ITS+(6.25 µg/mL insulin, 6.25 µg/mL transferrin, 6.25 ng/mL selenous acid, 5.35 μg/ml linoleic acid and 1.25 mg of bovine serum albumin) Premix Culture Supplement (Corning, Corning, N.Y., USA), 1× antibiotic-antimycotic, 1 mM sodium pyruvate (Sigma-Aldrich), 0.35 mM proline (Sigma-Aldrich), and 10 ng/mL recombinant human transforming growth factor-beta3 (TGF-β3, ProSpec, Israel). CCM without insulin consisted of CCM where the 1% ITS+Premix Culture Supplement was substituted with 1% stock solution (6.25 μg/ml transferrin and 6.25 ng/ml selenous acid, 5.35 μg/ml lionleic acid (Sigma-Aldrich) and 1.25 mg of bovine serum albumin (Fisher Scientific). Na2WO4 was added to all media leading to final Na2WO4 concentrations of 0, 0.01, 0.1 and 1 mM. Samples were harvested and analyzed for sulfated glycosaminoglycans (sGAG), cell number and gene expression at day 14 and 28 and for collagen type II and immunostaining at day 28.
(§2) Production of sGAG and cell number were determined. Samples were digested using papain (Sigma-Aldrich, Mo., USA) buffer overnight at 65 C. ° following manufacturer's protocol. The sGAG assay is used to measure the total sulfated proteoglycan content using Blyscan sGAG Assay Kit (Biocolor, UK). Cell lysate of samples (n=4 per group) and color reagent were combined in transparent 96-well plate and the absorbance at 656 nm was measured using a microplate spectrophotometer (EMax, Molecular Devices, Melville, N.Y., USA). sGAG concentration was determined relative to chondroitin sulfate standard curve. PicoGreen® ds DNA assay (Life Technologies) was used to determine the cell number. MSCs of known cell number were used as standards. Standards were prepared by lysing the cells using papain buffer. The cell lysate of samples and standards (n=4 per group) was mixed with an equal volume of Pico Green reagent. Fluorescence intensity was measured with a microplate reader ((FLX800, Biotek Instruments, Vt., USA)) at 480 nm excitation and 520 nm emission. A standard curve of known cell number was used to determine the sample cell number. GAG production was normalized to cell number.

[3] = system: Human MSCs; assay: Chondrogenesis culture: cell number (PicoGreen); format: cell-based
Method: as §1, §2

[4] = system: collagen type II; assay: Collagen type II ELISA; format: cell-based, human; conditions: day 28
Method: as §1
Collagen type II production was quantified by enzyme-linked immunosorbent assay (ELISA) using a collagen type II detection kit (Chondrex Inc. Redmond, Wash., USA). The ELISA was conducted following the manufacturer's instructions. Briefly, samples (n=4 per group) were harvested at day 28 and washed with PBS. Collagen was digested by adding pepsin solution (0.1 mg/ml in 0.05 M acetic acid) at 4 C° for two days with gentle mixing. The digested samples were centrifuged for 3 minutes and supernatants were collected. Pancreatic elastase was added to the samples and incubated overnight at 4° C. Supernatants were then collected. The ELISA plate which was coated with collagen type II was prepared as described by the manufacturer and the absorbance at 490 nm was measured using a microplate spectrophotometer (Emax, Molecular Devices). The collagen type II production was determined relative to the standard curve.

[5] = system: human peripheral blood lymphocytes; conditions: cited from earlier work
[6] = 0.01 mM Na2WO4, CCM, day 28, p<0.05
[7] = 1 mM Na2WO4, CCM without insulin, day 28

For `[Na+].[Na+].[O]=[W](=[O])([O-])[O-]` [Na2WO4, sodium tungstate], the “PBMC cell viability vs 0 mM” value [1] was “No significant differences in cell viability”, the “sGAG production, change between days 14 and 28” value ([2]; 0.01 mM Na2WO4, CCM) was “significant increase in sGAG production” and the “sGAG production vs 0 mM group” value ([2]; 0.01 mM Na2WO4, CCM without insulin) was “higher than 0 mM group in CCM without insulin but not significantly”. For the same compound, the “sGAG production vs all other groups” value ([2]; 0.01 mM Na2WO4, CCM, day 28, p<0.005) was “higher sGAG production than all other groups”, the “normalized sGAG to cell number vs 0 and 1 mM groups” value [2, 6] was “significantly higher” and the “sGAG production vs 0 mM group” value ([2]; 0.1 mM Na2WO4, CCM without insulin) was “higher than 0 mM group in CCM without insulin but not significantly”. The “sGAG production vs GM alone” value ([2]; 0.1 mM Na2WO4, GM, day 14) was “significantly higher”, the “normalized sGAG to cell number vs 0.01 mM” value [2, 7] was “significantly lower normalized sGAG to cell number” and the “sGAG vs all other groups” value [2, 7] was “significantly lower”. The “cell number vs 0.1 mM” value [3, 6] was “significantly higher than 0.1 mM”, the “cell number vs 0 mM” value ([3]; 0.1 mM Na2WO4, GM, day 14) was “significantly higher” and the “cell number vs other groups” value ([3]; 1 mM Na2WO4, CCM) was “significantly lower”. For the same compound, the “cell number vs all other groups” value [3, 7] was “significantly lower cell numbers”, the “collagen type II production vs all other groups” value ([4]; 0.01 mM Na2WO4, CCM, p<0.001) was “highest collagen type II” and the “collagen type II production vs 0 mM group” value ([4]; 0.01 mM Na2WO4, GM, p<0.05) was “significantly higher collagen type II”. For the same compound, the “collagen type II production vs 0 mM and 1 mM” value ([4]; 0.1 mM Na2WO4, CCM, p<0.001) was “significantly higher collagen type II production”, the “collagen type II production” value ([4]; 1 mM Na2WO4, CCM, p<0.001) was “lowest” and the “collagen type II production” value ([4]; CCM without insulin groups) was “not detected”. For the same compound, the immune response ([5]; 0.01 mM) was “did not stimulate an immune response”, the immune response ([5]; 0.1 mM) was “did not stimulate an immune response” and the toxicity ([5]; 1 mM dose) was “significant toxicity occurred”.
